The record followed here is US20250302080A1, “SWEETNESS AND/OR FLAVOR ENHANCER” (AJINOMOTO CO., INC., priority 2022, published 2025).

Experiment [1] can be described thus: Sensory evaluation of sweetness intensity in aspartame solution (Experimental Example 11). As to conditions: added alone, 3.0 points or more. As to the method:
A negative control aspartame solution (0.063 wt % aspartame solution) was prepared by dissolving aspartame in filtered water.
A sensory evaluation of sweetness intensity was performed for each sample by a panel of three experts according to the following evaluation criteria.
(§1) Sweetness intensity was evaluated by 0.0 to 10.0 points based on the following reference samples (negative control (hereinafter referred to as NC) (0.0 point); reference 1 (hereinafter referred to as R1) (5.0 points); reference 2 (hereinafter referred to as R2) (10.0 points)). The average score (rounded to two decimal places) of each expert panelist was calculated. An average score of 3.0 points or more was considered to be functional. • NC (0.0 point): 0.063 wt % aspartame solution (solvent: filtered water) • R1 (5.0 points): 0.066 wt % aspartame solution (solvent: filtered water) • R2 (10.0 points): 0.069 wt % aspartame solution (solvent: filtered water)

A short description of experiment [2]: Sensory evaluation of orange flavor intensity in orange drink (Experimental Example 13). As to conditions: added alone, 3.0 points or more. As to the method: A negative control orange drink was prepared by the same method as in Experimental Example 1.
A sensory evaluation of orange flavor intensity was performed for each sample by a panel of three experts according to the following evaluation criteria.
(§2) Orange flavor intensity was evaluated by 0.0 to 10.0 point based on the following reference samples (negative control (hereinafter referred to as NC) (0.0 point); reference 1 (hereinafter referred to as R1) (5.0 points); reference 2 (hereinafter referred to as R2) (10.0 points)). The average score (rounded to two decimal places) of each expert panelist was calculated. An average score of 3.0 points or more was considered to be functional. • NC (0.0 point): orange drink (trade name: Bireley's Orange) diluted 1.2 times with filtered water (i.e., negative control orange drink). • R1 (5.0 points): with 0.46 g of sucrose added per 99.54 g of NC. • R2 (10.0 points): with 0.92 g of sucrose added per 99.08 g of NC.

Experiment [3] in a line: Sensory evaluation of sweetness intensity in orange drink (Experimental Examples 1-5). As to conditions: added alone, score (average) of 3.0 points or more. As to the method:
A negative control orange drink was prepared by diluting an orange drink (product name: Bireley's Orange, 20% wt % orange juice, Asahi Soft Drinks Co., Ltd.) 1.2 times with filtered water.
When the carbohydrate content of Bireley's Orange is calculated as the total sucrose content, the negative control orange drink contains 9.17 g of sucrose per 100 g.
(§3) A sensory evaluation of sweetness intensity was performed for each sample by a panel of four experts according to the following evaluation criteria.
as §2, with “Sweetness” for “Orange flavor”, “Orange, Asahi Soft Drinks Co., Ltd.)” for “Orange)”
A sensory evaluation of sweetness intensity was performed for each sample by a panel of four experts according to the same evaluation criteria as in Experimental Example 1.

The nature of experiment [4]: Sensory evaluation of sweetness intensity in RebM solution (Experimental Examples 20-21). The note with it: added alone, 3.0 points or more. As to the method:
A negative control RebM solution (0.063 wt % RebM solution) was prepared by dissolving RebM in filtered water.
as §3
as §1, with “R1) (3.0 points),” for “R1) (5.0 points);”, “R2) (5.0 points); reference 3 (hereinafter referred to as R3)” for “R2)”, “% RebM” for “% aspartame”, “R1 (3.0 points): 0.063 wt % RebM solution (solvent: filtered water)+dodecanoic acid (1 ppb) • R2” for “R1”, “• R3” for “• R2”
A sensory evaluation of sweetness intensity was performed for each sample by a panel of four experts according to the same evaluation criteria as in Experimental Example 20.

Experiment [5] in a line: Sensory evaluation of sweetness intensity in sucralose solution (Experimental Examples 23-24). As to conditions: sucralose solution; added alone; 3.0 points or more. As to the method:
A negative control sucralose solution (0.0140 wt % sucralose solution) was prepared by dissolving sucralose in filtered water.
as §3
Sweetness intensity was evaluated by 0.0 to 10.0 point based on the following reference samples (negative control (hereinafter referred to as NC) (0.0 point); reference 1 (hereinafter referred to as R1) (3.0 points), reference 2 (hereinafter referred to as R2) (5.0 points); reference 3 (hereinafter referred to as R3) (10.0 points)). The average score (rounded to two decimal places) of each expert panelist was calculated. An average score of 3.0 points or more was considered to be functional. • NC (0.0 point): 0.0140 wt % sucralose solution (solvent: filtered water) • R1 (3.0 points): 0.0164 wt % sucralose solution (solvent: filtered water) • R2 (5.0 points): 0.0180 wt % sucralose solution (solvent: filtered water) • R3 (10.0 points): 0.0220 wt % sucralose solution (solvent: filtered water)
A sensory evaluation of sweetness intensity was performed for each sample by a panel of four experts according to the same evaluation criteria as in Experimental Example 23.

The nature of experiment [6]: Sensory evaluation of sweetness intensity in sucrose solution (Experimental Examples 25-27). As to conditions: added alone, 3.0 points or more. As to the method: A negative control sucrose solution (0.7 wt % sucrose solution) was prepared by dissolving sucrose in filtered water.
as §3
Sweetness intensity was evaluated by 0.0 to 10.0 points based on the following reference samples (negative control (hereinafter referred to as NC) (0.0 point); reference 1 (hereinafter referred to as R1) (3.0 points), reference 2 (hereinafter referred to as R2) (5.0 points); reference 3 (hereinafter referred to as R3) (10.0 points)). The average score (rounded to two decimal places) of each expert panelist was calculated. An average score of 3.0 points or more was considered to be functional. • NC (0.0 point): 7.0 wt % sucrose solution (solvent: filtered water) • R1 (3.0 points): 7.3 wt % sucrose solution (solvent: filtered water) • R2 (5.0 points): 7.5 wt % sucrose solution (solvent: filtered water) • R3 (10.0 points): 8.0 wt % sucrose solution (solvent: filtered water)
A sensory evaluation of sweetness intensity was performed for each sample by a panel of four experts according to the same evaluation criteria as in Experimental Example 25.

Where only a bound is given, the exact number is not on record here.

Regarding `CC(C)CCC(=O)O` [4-methylpentanoic acid], the “concentration at which a sweetness-enhancing effect was confirmed” value in experiment [1] is recorded as 100 ppb; in experiment [3], not below 10 ppb; in experiment [4], 100 ppb. For the same compound, in experiment [2], the “concentration at which an orange flavor-enhancing effect was confirmed” value is not below 10 ppb.

Turning to `CC1=C(O)C(=O)CC1` [cyclotene], the “concentration at which a sweetness-enhancing effect was confirmed” value in experiment [1] was 10 ppb; in experiment [3] it was not below 0.1 ppb; in experiment [4], 10 ppb. In experiment [2], the “concentration at which an orange flavor-enhancing effect was confirmed” value is reported as not below 10 ppb.

Consider `CCCCCCCCCC(=O)O` [decanoic acid], for which the “concentration at which a sweetness-enhancing effect was confirmed” value is 10 ppb in experiment [1]; 10 ppb in experiment [5]; not below 0.1 ppb in experiment [3]; 10 ppb in experiment [4]; 10 ppb in experiment [6]. Moreover, in experiment [2], the “concentration at which an orange flavor-enhancing effect was confirmed” value is not below 0.01 ppb.
